Laboratory results published in patent publication US10647679B2, “N-methyl-D-aspartate receptor (NMDAR) potentiators, pharmaceutical compositions, and uses related thereto” (Emory University, priority 2015, dated 2020).
Read-outs that look alike come from different tables or passages of the source.

What was measured:
Format in all cases: cell-based
[1] = target: T1, recombinant rat GluN1/GluN2C (Rattus norvegicus, UniProt Q00961); assay: Two-electrode voltage-clamp (TEVC) recordings in Xenopus laevis oocytes, GluN1/GluN2C; settings: for I30 μM/Icontrol (mean ± SEM, %) GluN2C: 30 μM compound, Tables 5-7; for GluN2C EC50 (μM)/Max %: Max %: maximum potentiation, response without modulator = 100%; for EC50 (max.) (μM %) GluN2C: fitted maximum response: percentage of the initial glutamate (100 μM) and glycine (30 μM) current
T1 construct: expressed in transfected cells; host or cells: Xenopus laevis oocytes (Ecocyte) injected with in vitro transcribed cRNA
Method: (§1) Data are from between 3-26 oocytes from 2-5 frogs for each compound and receptor tested.
(§2) Two-electrode voltage-clamp recordings were performed in Xenopus laevis oocytes (Ecocyte) expressing recombinant rat GluN1/GluN2A, GluN1/GluN2B, GluN1/GluN2C, GluN1/GluN2D. cRNA was transcribed in vitro (Ambion), diluted with nuclease free water, and injected at a ratio of 1:2 GluN1:GluN2 (5-10 ng total cRNA). The oocytes were kept in Barth's solution comprised of (in mM) 88 NaCl, 5 Tris-HCl, 2.4 NaHCO3, 1 KCl, 0.84 MgSO4, 0.41 CaCl2, and 0.33 Ca(NO3)2 at pH 7.4 at 15-17° C. for two to five days before experiments. Oocytes were placed into a perfusion chamber and continually washed with recording solution containing (in mM) 90 NaCl, 1.0 KCl, 0.5 BaCl2, 0.005 EDTA, and 10 HEPES at pH 7.4 (23° C.). Voltage clamp recordings were conducted at a holding potential of −40 mV. All compounds were made as 20 mM stock solutions in DMSO and dissolved to reach the final concentration in recording solution. Final DMSO content was 0.05-0.5% (vol/vol). Some oocytes expressing GluN1/GluN2A were pretreated with […] BAPTA-AM for 10 minutes or injected with […] of 2 mM K-BAPTA to prevent gradual run-up of the current response.

[2] = target: T2, recombinant rat GluN1/GluN2B (Rattus norvegicus, UniProt Q00960); assay: Two-electrode voltage-clamp (TEVC) recordings in Xenopus laevis oocytes, GluN1/GluN2B; settings: for I30 μM/Icontrol (mean ± SEM, %) GluN2B: 30 μM compound, Tables 5-7; for EC50: fitted when potentiation at 30 μM exceeded 120%, Tables 3, 5-7, read-out: EC50 (max.) (μM %) GluN2B: fitted EC50; for GluN2B EC50 (μM)/Max %: Max %: maximum potentiation, response without modulator = 100%; for EC50 (max.) (μM %) GluN2B: fitted maximum response: percentage of the initial glutamate (100 μM) and glycine (30 μM) current
T2 construct: expressed in transfected cells; host or cells: Xenopus laevis oocytes (Ecocyte) injected with in vitro transcribed cRNA
Method: as §1, §2

[3] = target: T3, recombinant rat GluN1/GluN2D (Rattus norvegicus, UniProt Q62645); assay: Two-electrode voltage-clamp (TEVC) recordings in Xenopus laevis oocytes, GluN1/GluN2D; settings: for I30 μM/Icontrol (mean ± SEM, %) GluN2D: 30 μM compound, Tables 5-7; for GluN2D EC50 (μM)/Max %: Max %: maximum potentiation, response without modulator = 100%; for EC50 (max.) (μM %) GluN2D: fitted maximum response: percentage of the initial glutamate (100 μM) and glycine (30 μM) current
T3 construct: expressed in transfected cells; host or cells: Xenopus laevis oocytes (Ecocyte) injected with in vitro transcribed cRNA
Method: as §1, §2

[4] = target: T4, recombinant rat GluN1/GluN2C (Rattus norvegicus, UniProt P35439+Q00961); assay: Two-electrode voltage-clamp (TEVC) recordings in Xenopus laevis oocytes, GluN1/GluN2C; settings: for Emax: maximum potentiation, response without modulator = 100%, read-out: GluN2C EC50 (μM)/Max %: Max %
T4 construct: expressed in transfected cells; host or cells: Xenopus laevis oocytes (Ecocyte) injected with in vitro transcribed cRNA
Method: as §1, §2

[5] = target: T5, recombinant rat GluN1/GluN2B (Rattus norvegicus, UniProt P35439+Q00960); assay: Two-electrode voltage-clamp (TEVC) recordings in Xenopus laevis oocytes, GluN1/GluN2B; settings: for EC50: fitted when potentiation at 30 μM exceeded 120%, Tables 3, 5-7, read-out: EC50 (max.) (μM %) GluN2B: fitted EC50
T5 construct: expressed in transfected cells; host or cells: Xenopus laevis oocytes (Ecocyte) injected with in vitro transcribed cRNA
Method: as §1, §2

[6] = untitled tables after drawing 25 and drawing 36, read-out: EC50 (μM) GluN2C
[7] = fitted when potentiation at 30 μM exceeded 120%, Tables 3, 5-7, read-out: EC50 (max.) (μM %) GluN2C: fitted EC50
[8] = fitted when potentiation at 30 μM exceeded 120%, Tables 3, 5-7, read-out: EC50 (max.) (μM %) GluN2D: fitted EC50
[9] = maximum potentiation, response without modulator = 100%, read-out: GluN2B EC50 (μM)/Max %: Max %
[10] = percentage of the initial glutamate (100 μM) and glycine (30 μM) current, read-out: EC50 (max.) (μM %) GluN2B: fitted maximum response

T3 sequence (Q62645 28-1323, other chains not shown): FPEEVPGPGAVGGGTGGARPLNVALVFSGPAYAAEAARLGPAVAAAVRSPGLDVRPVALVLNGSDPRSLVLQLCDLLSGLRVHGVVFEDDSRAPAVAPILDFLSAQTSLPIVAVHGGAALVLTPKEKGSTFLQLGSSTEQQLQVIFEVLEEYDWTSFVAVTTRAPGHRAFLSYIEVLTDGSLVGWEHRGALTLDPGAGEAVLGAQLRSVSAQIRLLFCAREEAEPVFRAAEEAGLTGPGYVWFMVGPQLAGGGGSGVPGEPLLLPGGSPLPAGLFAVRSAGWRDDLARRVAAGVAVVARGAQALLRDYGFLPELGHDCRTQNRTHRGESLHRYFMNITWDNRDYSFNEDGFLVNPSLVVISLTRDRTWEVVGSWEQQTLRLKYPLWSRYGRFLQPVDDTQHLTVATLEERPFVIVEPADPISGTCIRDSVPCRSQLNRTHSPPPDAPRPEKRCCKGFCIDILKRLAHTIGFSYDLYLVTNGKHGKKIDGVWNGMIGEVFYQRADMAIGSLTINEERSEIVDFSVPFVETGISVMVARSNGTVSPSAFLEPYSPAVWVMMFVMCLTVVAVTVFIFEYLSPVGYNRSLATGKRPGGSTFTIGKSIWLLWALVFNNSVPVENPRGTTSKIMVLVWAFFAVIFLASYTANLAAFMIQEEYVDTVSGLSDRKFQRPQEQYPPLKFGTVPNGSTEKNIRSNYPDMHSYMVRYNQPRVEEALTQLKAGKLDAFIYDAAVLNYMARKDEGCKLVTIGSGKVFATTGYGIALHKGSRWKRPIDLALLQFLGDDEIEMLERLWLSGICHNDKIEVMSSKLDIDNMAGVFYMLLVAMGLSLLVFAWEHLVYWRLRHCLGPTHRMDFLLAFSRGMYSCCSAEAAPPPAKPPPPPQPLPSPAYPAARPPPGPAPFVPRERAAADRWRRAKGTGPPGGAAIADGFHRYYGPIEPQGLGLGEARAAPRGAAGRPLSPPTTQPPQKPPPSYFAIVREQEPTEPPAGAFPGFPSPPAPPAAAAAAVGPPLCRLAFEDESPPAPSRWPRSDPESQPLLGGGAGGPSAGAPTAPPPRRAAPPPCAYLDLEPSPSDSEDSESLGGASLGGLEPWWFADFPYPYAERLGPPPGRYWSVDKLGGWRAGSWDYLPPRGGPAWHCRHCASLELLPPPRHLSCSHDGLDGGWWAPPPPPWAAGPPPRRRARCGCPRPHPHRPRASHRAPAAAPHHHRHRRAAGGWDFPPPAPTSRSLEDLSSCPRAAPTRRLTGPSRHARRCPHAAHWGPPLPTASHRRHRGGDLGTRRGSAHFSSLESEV
T5 sequence (Q00960 27-1482, other chains not shown): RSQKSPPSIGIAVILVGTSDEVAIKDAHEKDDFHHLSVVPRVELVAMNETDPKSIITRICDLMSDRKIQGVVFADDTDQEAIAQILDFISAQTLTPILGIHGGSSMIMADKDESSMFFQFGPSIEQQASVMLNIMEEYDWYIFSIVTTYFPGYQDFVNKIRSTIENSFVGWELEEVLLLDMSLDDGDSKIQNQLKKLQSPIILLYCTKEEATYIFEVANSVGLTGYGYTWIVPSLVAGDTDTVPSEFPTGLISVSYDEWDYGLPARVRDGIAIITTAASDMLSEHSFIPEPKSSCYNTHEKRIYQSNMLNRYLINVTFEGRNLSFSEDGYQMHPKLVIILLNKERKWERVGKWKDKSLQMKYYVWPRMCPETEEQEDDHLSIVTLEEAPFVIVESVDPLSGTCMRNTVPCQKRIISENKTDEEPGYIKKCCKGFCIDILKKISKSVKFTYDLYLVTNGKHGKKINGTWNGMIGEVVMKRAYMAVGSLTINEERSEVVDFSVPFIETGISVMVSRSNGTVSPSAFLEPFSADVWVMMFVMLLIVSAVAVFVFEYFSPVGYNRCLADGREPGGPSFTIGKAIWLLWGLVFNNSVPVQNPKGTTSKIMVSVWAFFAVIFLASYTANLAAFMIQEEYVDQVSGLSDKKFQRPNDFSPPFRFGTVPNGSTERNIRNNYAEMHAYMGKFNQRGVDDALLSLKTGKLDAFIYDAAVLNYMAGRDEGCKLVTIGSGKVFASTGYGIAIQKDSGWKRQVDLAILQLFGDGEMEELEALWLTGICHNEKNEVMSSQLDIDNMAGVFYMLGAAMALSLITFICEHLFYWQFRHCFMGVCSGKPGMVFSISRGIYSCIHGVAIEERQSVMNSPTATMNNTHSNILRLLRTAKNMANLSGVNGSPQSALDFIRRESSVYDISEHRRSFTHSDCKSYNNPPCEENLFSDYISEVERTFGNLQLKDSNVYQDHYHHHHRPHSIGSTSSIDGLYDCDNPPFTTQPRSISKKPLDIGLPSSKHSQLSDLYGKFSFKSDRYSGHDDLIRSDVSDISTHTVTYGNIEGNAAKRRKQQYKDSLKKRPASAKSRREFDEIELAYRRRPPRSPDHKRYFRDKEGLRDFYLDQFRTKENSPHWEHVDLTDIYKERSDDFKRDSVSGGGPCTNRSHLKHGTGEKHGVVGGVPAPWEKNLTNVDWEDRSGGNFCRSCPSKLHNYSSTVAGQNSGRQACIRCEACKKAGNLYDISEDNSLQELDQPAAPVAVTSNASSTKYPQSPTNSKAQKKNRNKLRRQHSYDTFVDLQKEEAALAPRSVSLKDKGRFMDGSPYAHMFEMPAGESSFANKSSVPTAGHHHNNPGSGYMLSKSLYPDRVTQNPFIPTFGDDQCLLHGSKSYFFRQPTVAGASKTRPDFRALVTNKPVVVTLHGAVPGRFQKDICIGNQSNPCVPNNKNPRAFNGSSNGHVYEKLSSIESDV
T2 sequence (Q00960 27-1482, other chains not shown): as above

`CCOc1ccc(OC[C@H]2c3ccc(OC(C)C)cc3CCN2C(=S)c2cccc(F)c2)cc1` [(R)-(+)-1180-154] was tested, and the “I30 μM/Icontrol (mean ± SEM, %) GluN2C” value [1] was 58%, the “I30 μM/Icontrol (mean ± SEM, %) GluN2B” value [2] was 95% and the “I30 μM/Icontrol (mean ± SEM, %) GluN2D” value [3] was 74%.

For `COc1ccc(OCC2c3ccc(OC)cc3CCN2C(=O)c2coc(Cl)n2)cc1` (stereo not drawn) [1180-247], the EC50 [4, 6] was 65 µM, the “GluN2B response % at 30 µM” value [2] was 99% at 30 and the “GluN2D response % at 100 μM” value ([3]; at 100 μM) was 223% at 100.

With `CCOc1ccc(OCC2c3ccc(OC(C)C)cc3CCN2S(=O)(=O)c2cccc(Cl)c2)cc1` (stereo not drawn) [1180-199] the “GluN2C response % at 10 μM” value ([1]; at 10 μM, Table 9) was 142% at 10 μM.

`COc1ccc(OCC2c3ccc(OC(C)C)cc3CCN2C(=S)c2cccc(Cl)c2)cc1` (racemic) [1180-163] was tested, and the “I10 μM/Icontrol (mean ± SEM, %) GluN2C” value ([1]; 10 μM compound, Table 3) was 272%, the “EC50 & Max Effect: 2C Max (%)” value ([1]; Tables 11-13) was 247% and the EC50 ([1]; Tables 11-13, read-out: EC50 & Max Effect: 2C) was 0.43 µM. For the same molecule, the EC50 [1, 7] was 0.32 µM, the “GluN2C EC50 (μM)/Max %: Max %” value [1] was 247% and the “EC50 (max.) (μM %) GluN2C: fitted maximum response” value [1] was “(273%)”. For the same molecule, the “I10 μM/Icontrol (mean ± SEM, %) GluN2B” value ([2]; 10 μM compound, Table 3) was 212%, the EC50 [2] was 0.11 µM and the “GluN2B EC50 (μM)/Max %: Max %” value [2] was 262%. The “EC50 (max.) (μM %) GluN2B: fitted maximum response” value [2] was “(228%)”, the “I10 μM/Icontrol (mean ± SEM, %) GluN2D” value ([3]; 10 μM compound, Table 3) was 231% and the “EC50 & Max Effect: 2D Max (%)” value ([3]; Tables 11-13) was 249%. The EC50 ([3]; Tables 11-13, read-out: EC50 & Max Effect: 2D) was 0.43 µM, the EC50 [3, 8] was 0.14 µM and the “GluN2D EC50 (μM)/Max %: Max %” value [3] was 249%. For the same molecule, the “EC50 (max.) (μM %) GluN2D: fitted maximum response” value [3] was “(260%)”.

For `CCOc1ccc(OCC2c3ccc(OC(C)C)cc3CCN2C(=O)C=C(C)C(F)(F)F)cc1` (stereo not drawn) [1180-263], the “GluN2C response % at 30 µM” value [1] was 165% at 30, the “GluN2B response % at 30 µM” value [2] was 145% at 30 and the “GluN2D response % at 30 µM” value [3] was 146% at 30.

In the case of `CCOc1ccc(OCC2c3ccc(OC4CCCC4)cc3CCN2C(=S)c2cccc(F)c2)cc1` (racemic) [1180-162], the “EC50 & Max Effect: 2C Max (%)” value [1] is reported as 218%, the EC50 ([1]; read-out: EC50 & Max Effect: 2C) is reported as 0.26 µM and the “EC50 & Max Effect: 2D Max (%)” value [3] is reported as 295%. For the same molecule, the EC50 ([3]; read-out: EC50 & Max Effect: 2D) was 0.39 µM.

With `COc1ccc(OCC2c3cc(OC)c(OC)cc3CCN2C(=S)c2cccc(Br)c2)cc1` (racemic) [1180-157] the “EC50 & Max Effect: 2C (μM)” value [1] was “Inactive” and the “EC50 & Max Effect: 2D (μM)” value [3] was “Inactive”.

With `CCOc1ccc(OCC2c3ccc(OC(C)C)cc3CCN2C(=O)c2cccc(F)c2)cc1` (stereo not drawn) [1180-87] the “I30 μM/Icontrol (mean ± SEM, %) GluN2C” value [1] was 103%, the “I30 μM/Icontrol (mean ± SEM, %) GluN2B” value [2] was 151% and the EC50 [5] was 2.8 µM. For the same molecule, the Emax [5, 9] was 152% and the Emax [5, 10] was 152%.

For `CCOc1ccc(OCC2c3ccc(OC(C)C)cc3CCN2C(=O)c2cccc(Br)c2)cc1` (stereo not drawn) [1180-86], the Emax [4] was 132% and the Emax [5, 9] was 138%.

In the case of `CCOc1ccc(OC[C@@H]2c3ccc(OC(C)C)cc3CCN2C(=O)c2ccc(Cl)c(Cl)c2)cc1` [(S)-(−)-1180-103], the “I30 μM/Icontrol (mean ± SEM, %) GluN2C” value [1] is reported as 114%, the “GluN2C potentiation at 3 μM” value ([1]; at 3 μM, footnote c of Table 7) is reported as “exceeded 120%” and the “I30 μM/Icontrol (mean ± SEM, %) GluN2B” value [2] is reported as 153%. For the same molecule, the EC50 [5] was 0.94 µM, the Emax [5, 10] was 163% and the “I30 μM/Icontrol (mean ± SEM, %) GluN2D” value [3] was 102%. The “GluN2D potentiation at 3 μM” value ([3]; at 3 μM, footnote c of Table 7) was “exceeded 120%”.

In the case of `CCOc1ccc(OCC2c3ccc(OC(C)C)cc3CCN2C(=S)c2ccc(Cl)c(Cl)c2)cc1` (stereo not drawn) [1180-155], the Emax [4] is reported as 169% and the Emax [5, 9] is reported as 157%.

With `COc1ccc(OCC2c3cc(OC(=O)c4cccc(Cl)c4)c(OC)cc3CCN2C(=O)C=CC(F)(F)F)cc1` (stereo not drawn) [1180-330] the “GluN2C response % at 30 µM” value [1] was 102 at 30%, the “GluN2B response % at 30 µM” value [2] was 95 at 30% and the “GluN2D response % at 30 µM” value [3] was 96 at 30%.

In the case of `CCOc1ccc(OCC2c3ccc(OC(C)C)cc3CCN2C(=S)c2cccc(F)c2)cc1` (racemic) [1180-154], the “I30 μM/Icontrol (mean ± SEM, %) GluN2C” value [1] is reported as 166%, the EC50 [1, 7] is reported as 1.4 µM and the “GluN2C EC50 (μM)/Max %: Max %” value [1] is reported as 191%. The “EC50 (max.) (μM %) GluN2C: fitted maximum response” value [1] was “(145%)”, the “I30 μM/Icontrol (mean ± SEM, %) GluN2B” value [2] was 184% and the EC50 [2] was 0.7 µM. The “GluN2B EC50 (μM)/Max %: Max %” value [2] was 200%, the “EC50 (max.) (μM %) GluN2B: fitted maximum response” value [2] was “(190%)” and the “I30 μM/Icontrol (mean ± SEM, %) GluN2D” value [3] was 154%. The EC50 [3, 8] was 1.2 µM, the “GluN2D EC50 (μM)/Max %: Max %” value [3] was 159% and the “EC50 (max.) (μM %) GluN2D: fitted maximum response” value [3] was “(153%)”.

In the case of `COc1ccc(OCC2c3ccc(OC)cc3CCN2C(=O)C=C(C)C(F)(F)F)cc1` (stereo not drawn) [1180-255], the EC50 [1, 6] is reported as 15 µM, the “GluN2B response % at 30 µM” value [2] is reported as 99% at 30 and the EC50 ([3]; untitled tables after drawing 25 and drawing 36, read-out: EC50 (μM) GluN2D) is reported as 23 µM.

With `CCOc1ccc(OC[C@@H]2c3ccc(OC(C)C)cc3CCN2C(=S)c2cccc(C(F)(F)F)c2)cc1` [(S)-(−)-1180-168] the “I30 μM/Icontrol (mean ± SEM, %) GluN2C” value [1] was 87%, the “I30 μM/Icontrol (mean ± SEM, %) GluN2B” value [2] was 95% and the “I30 μM/Icontrol (mean ± SEM, %) GluN2D” value [3] was 87%.
